Source: ChEMBL document CHEMBL1649476, “In vitro chemosensitization of Plasmodium falciparum to antimalarials by verapamil and probenecid” (Antimicrob Agents Chemother, 2009)

Experiments:
Plasmodium falciparum [1] = assay: Antiplasmodial activity against multidrug-resistant Plasmodium falciparum VS/1 by [3H]hypoxanthine incorporation assay; assay type: functional, organism-based
Plasmodium falciparum [2] = assay: Antiplasmodial activity against Plasmodium falciparum 3D7 by [3H]hypoxanthine incorporation assay; assay type: functional, organism-based
Plasmodium falciparum [3] = assay: Selectivity ratio of IC50 for Plasmodium falciparum 3D7 to IC50 for multidrug-resistant Plasmodium falciparum VS/1; assay type: functional
Plasmodium falciparum [4] = assay: Chemosensitization of chloroquine against multidrug-resistant Plasmodium falciparum VS/1 by [3H]hypoxanthine incorporation assay; assay type: functional
Plasmodium falciparum [5] = assay: Chemosensitization of primaquine against multidrug-resistant Plasmodium falciparum VS/1 by [3H]hypoxanthine incorporation assay; assay type: functional
Plasmodium falciparum [6] = assay: Chemosensitization of amodiaquin against multidrug-resistant Plasmodium falciparum VS/1 by [3H]hypoxanthine incorporation assay; assay type: functional
Plasmodium falciparum [7] = assay: Chemosensitization of piperaquine against multidrug-resistant Plasmodium falciparum VS/1 by [3H]hypoxanthine incorporation assay; assay type: functional
Plasmodium falciparum [8] = assay: Chemosensitization of desethylamodiaquin against multidrug-resistant Plasmodium falciparum VS/1 by [3H]hypoxanthine incorporation assay; assay type: functional
Plasmodium falciparum [9] = assay: Chemosensitization of halofantrine against multidrug-resistant Plasmodium falciparum VS/1 by [3H]hypoxanthine incorporation assay; assay type: functional
Plasmodium falciparum [10] = assay: Chemosensitization of lumefantrine against multidrug-resistant Plasmodium falciparum VS/1 by [3H]hypoxanthine incorporation assay; assay type: functional
Plasmodium falciparum [11] = assay: Chemosensitization of mefloquine against multidrug-resistant Plasmodium falciparum VS/1 by [3H]hypoxanthine incorporation assay; assay type: functional
Plasmodium falciparum [12] = assay: Chemosensitization of quinine against multidrug-resistant Plasmodium falciparum VS/1 by [3H]hypoxanthine incorporation assay; assay type: functional
Plasmodium falciparum [13] = assay: Chemosensitization of chlorcycloguanil against multidrug-resistant Plasmodium falciparum VS/1 by [3H]hypoxanthine incorporation assay; assay type: functional
Plasmodium falciparum [14] = assay: Chemosensitization of pyrimethamine against multidrug-resistant Plasmodium falciparum VS/1 by [3H]hypoxanthine incorporation assay; assay type: functional
Plasmodium falciparum [15] = assay: Chemosensitization of methotrexate against multidrug-resistant Plasmodium falciparum VS/1 by [3H]hypoxanthine incorporation assay; assay type: functional
Plasmodium falciparum [16] = assay: Chemosensitization of benzonaphthyridine pyronaridine against multidrug-resistant Plasmodium falciparum VS/1 by [3H]hypoxanthine incorporation assay; assay type: functional
Plasmodium falciparum [17] = assay: Chemosensitization of sesquiterpene dihydroartemisinin pyronaridine against multidrug-resistant Plasmodium falciparum VS/1 by [3H]hypoxanthine incorporation assay; assay type: functional

Question: Which IC50 (Plasmodium falciparum [1]) does the source give for CN(Cc1cnc2nc(N)nc(N)c2n1)c1ccc(C(=O)N[C@@H](CCC(=O)O)C(=O)O)cc1 [METHOTREXATE] here?
Answer: 63 nM

Question: For CCCCN(CCCC)CCC(O)c1cc2c(Cl)cc(Cl)cc2c2cc(C(F)(F)F)ccc12 (configuration not stated) [HALOFANTRINE], which IC50 (Plasmodium falciparum [1]) is on record?
Answer: 9 nM

Question: Which results are given for CCCCN(CCCC)CC(O)c1cc(Cl)cc2c1-c1ccc(Cl)cc1/C2=C/c1ccc(Cl)cc1 (configuration not stated) [LUMEFANTRINE]?
Answer: IC50 (Plasmodium falciparum [1]): 53 nM; IC50 (Plasmodium falciparum [2]): 1690 nM; Ratio IC50 (Plasmodium falciparum [3]): 2

Question: With CCN(CC)Cc1cc(Nc2ccnc3cc(Cl)ccc23)ccc1O as the compound, how does the IC50 (Plasmodium falciparum [1]) read?
Answer: 8 nM

Question: COc1ccc(CCN(C)CCCC(C#N)(c2ccc(OC)c(OC)c2)C(C)C)cc1OC (configuration not stated) [VERAPAMIL] was tested. Which FICI (Plasmodium falciparum [4]) did it give?
Answer: 0.52 nM

Question: And the FICI (Plasmodium falciparum [5])?
Answer: 0.71 nM

Question: What about the FICI (Plasmodium falciparum [6]) of the same compound?
Answer: 1.4 nM

Question: What about the FICI (Plasmodium falciparum [7]) of the same compound?
Answer: 1.13 nM

Question: And the FICI (Plasmodium falciparum [8])?
Answer: 0.47 nM

Question: What about the FICI (Plasmodium falciparum [9]) of the same compound?
Answer: 1.1 nM

Question: And the FICI (Plasmodium falciparum [10])?
Answer: 0.55 nM

Question: And the FICI (Plasmodium falciparum [11])?
Answer: 1.12 nM

Question: And the FICI (Plasmodium falciparum [12])?
Answer: 0.39 nM

Question: And the FICI (Plasmodium falciparum [13])?
Answer: 1 nM

Question: And the FICI (Plasmodium falciparum [14])?
Answer: 1.07 nM

Question: What about the FICI (Plasmodium falciparum [15]) of the same compound?
Answer: 1.33 nM

Question: What about the FICI (Plasmodium falciparum [16]) of the same compound?
Answer: 1.07 nM

Question: What about the FICI (Plasmodium falciparum [17]) of the same compound?
Answer: 1.07 nM

Question: With CC1(C)N=C(N)N=C(N)N1c1ccc(Cl)c(Cl)c1 [CHLORCYCLOGUANIL] as the compound, how does the IC50 (Plasmodium falciparum [1]) read?
Answer: 79 nM

Question: How did the IC50 (Plasmodium falciparum [1]) turn out when CCNCc1cc(Nc2ccnc3cc(Cl)ccc23)ccc1O [DESETHYL AMODIAQUINE] was run?
Answer: 42 nM

Question: How did the IC50 (Plasmodium falciparum [1]) turn out when COc1cc(NC(C)CCCN)c2ncccc2c1 (configuration not stated) [PRIMAQUINE] was run?
Answer: 326 nM

Question: What about the IC50 (Plasmodium falciparum [2]) of the same compound?
Answer: 326 nM

Question: And the “Ratio IC50” value (Plasmodium falciparum [3])?
Answer: 5

Question: Clc1ccc2c(N3CCN(CCCN4CCN(c5ccnc6cc(Cl)ccc56)CC4)CC3)ccnc2c1 [PIPERAQUINE] was tested. Which IC50 (Plasmodium falciparum [1]) did it give?
Answer: 88 nM

Question: With C=C[C@H]1CN2CC[C@H]1C[C@H]2[C@H](O)c1ccnc2ccc(OC)cc12 [QUININE] as the compound, how does the IC50 (Plasmodium falciparum [1]) read?
Answer: 133 nM

Question: Which results are given for CCCN(CCC)S(=O)(=O)c1ccc(C(=O)O)cc1 [PROBENECID]?
Answer: FICI (Plasmodium falciparum [4]): 0.78 nM; FICI (Plasmodium falciparum [5]): 0.83 nM; FICI (Plasmodium falciparum [6]): 1.57 nM; FICI (Plasmodium falciparum [7]): 0.12 nM; FICI (Plasmodium falciparum [8]): 1.12 nM; FICI (Plasmodium falciparum [9]): 0.57 nM; FICI (Plasmodium falciparum [10]): 1.21 nM; FICI (Plasmodium falciparum [11]): 0.78 nM; FICI (Plasmodium falciparum [12]): 1.2 nM; FICI (Plasmodium falciparum [13]): 0.64 nM; FICI (Plasmodium falciparum [14]): 0.2 nM; FICI (Plasmodium falciparum [15]): 1.02 nM; FICI (Plasmodium falciparum [16]): 5.9 nM; FICI (Plasmodium falciparum [17]): 1.12 nM

Question: For CCc1nc(N)nc(N)c1-c1ccc(Cl)cc1 [PYRIMETHAMINE], which IC50 (Plasmodium falciparum [1]) is on record?
Answer: 5000 nM
